{"source": "patent US20180064829A1", "about": "“FLUORESCENT BISPHOSPHONATE ANALOGS” (University of Southern California, priority 2015, published 2018)", "key": {"J774.2 macrophages": {"test_system": "J774.2 macrophages", "assay": "J774.2 cell viability assay (AlamarBlue)", "assay_type": "cell-based, mouse", "details": "J774.2 macrophages, 10, 100 or 500 μM, 48 h; FIG. 5D-F", "procedure": "To determine the effect of fluorescent BP analogues on cell viability, J774.2 mouse macrophages were plated at 2×10^5 cells/mL in 96-well plates and left to adhere overnight. Cells were then treated with 10, 100 or 500 μM of fluorescent analogues of RIS, dRIS, and ZOL, the respective native BP, or vehicle, for 48 h. At the end of the incubation period, AlamarBlue reagent was added to each well and incubation continued for a further 3 h. Fluorescence was detected on a plate reader, and expressed as percent of vehicle control. Results are shown as mean±SD of ≧2 independent experiments, performed at least in duplicate."}, "[1]": {"details": "pH 7.0, 0.1M phosphate buffer; assumed the same as the corresponding fluorescent dye; cited from earlier work"}, "[2]": {"test_system": "unprenylated Rap1A (uRap1A)", "assay": "Prenylation assay: Western blot for unprenylated Rap1A in J774.2 macrophages", "assay_type": "cell-based, mouse", "details": "10 or 100 μM, 24 h, FIG. 5A-C", "procedure": "To determine the effect of fluorescent BP probes on protein prenylation, J774.2 mouse macrophages were plated out at 2×10^5 cells/mL in 24-well plates and left to adhere overnight. Cells were then treated with 10 or 100 μM of fluorescent analogues of RIS, dRIS, and ZOL, the respective native BP, or vehicle, for 24 h. Cells were lysed in radioimmunoprecipitation buffer, and proteins were separated by sodium dodecyl sulfate polyacrylamide gel electrophoresis and transferred to polyvinyl difluoride membranes by western blotting. Membranes were then incubated with antibodies to the unprenylated form of Rap1A (uRap1A) and the housekeeping protein β-actin, which were detected by incubation with fluorescently-labeled secondary antibodies and scanning of membranes on a LI-COR Infrared Imager. Results shown are representative of 2 independent experiments. The ratio between abundance of unprenylated RaplA and β-actin is indicated for each sample below the blots in FIG. 5."}, "[3]": {"assay": "UV-VIS absorption and fluorescence emission spectra", "assay_type": "physicochemical", "details": "0.1M phosphate buffer (1x PBS for 7d5); ± 1 nm error", "procedure": "All labeled samples were dissolved in water and diluted with 0.1 M phosphate buffer or 1×PBS (for 7d5). Assuming that the labeled bisphosphonates have the same extinction coefficient (E) as the carboxylic acid of the free fluorescent label, the final concentrations for all labeled products were calculated from UV-VIS absorption spectra at λ=493 nm (ε=73000 M^−1 cm^−1 at pH 7.2) for FAM conjugates (7a1-7a3, 7b1, 7c1, 7d1-7d2, 7e1-7e2, 7f1-7f2), λ=567.5 nm (ε=114850 M^−1cm^−1 at pH 7.5) for RhR-X conjugates (7a4, 7b2, 7c2), λ=580 nm (c=72000 M^−1cm^−1 at pH 8.0) for ROX conjugates (7a5, 7b3), λ=648 nm (ε=240000 M^−1cm^−1 at pH 7.2) for AF647 conjugates (7a6, 7b4, 7d3), λ=774 nm (ε=240000 M^−1cm^−1 at pH 7.4) for 800CW conjugates (7d4), λ=644 nm (ε=271000 M^−1cm^−1 at pH 7.4, 1×PBS) for Sulfo-Cy5 conjugates (7d5).\nEmission spectra for FAM and RhR-X conjugates were recorded using an excitation wavelength of 490 nm or 520 nm, respectively. Emission spectra for AF647 conjugates and Sulfo-Cy5 conjugates were recorded using an excitation wavelength of 600 nm. Emission spectra of 5(6)-ROX conjugates were recorded using an excitation wavelength of 575 nm. Emission spectra of IRDye CW800 conjugate was recorded using an excitation wavelength of 750 nm. The set-up of excitation slit, emission slit, integration time and increment were determined to get optimal spectra for each compound respectively, depending on the sample concentration and spectrometer used."}, "[4]": {"assay": "Hydroxyapatite (HAP) column chromatography binding assay", "details": "pH 6.8, phosphate gradient 1 to 1000 mM; FIG. 3", "procedure": "The fast performance liquid chromatography (FPLC) system consisted of a Waters 650E advanced protein purification system (Millipore Corp., Waters chromatography division, Milford, Mass.), a 600E system controller and a 484 tunable absorbance detector for UV absorbance assessment. Ceramic hydroxyapatite [HAP, […], Macro-Prep® Ceramic Hydroxyapatite Type II 20 μm 100 g, Bio-Rad Laboratories, Inc. Hercules, Calif.] was equilibrated with 1 mM phosphate buffer (pH 6.8) and packed in a 0.66 cm (diameter)×6.5 cm (length) glass column (Omnifit, Bio-chem Valve™ inc., Cambridge, U.K.), which was attached to the Waters 650E advanced protein purification system. Each sample was prepared in 1 mM potassium phosphate buffer, and 100 μL of 1 mM (0.1 μmol) sample was injected into the FPLC system. As a consequence, the compounds were absorbed and subsequently eluted at a flow rate of 2 ml/min by using a linear concentration gradient of phosphate from 1 to 1000 mM at pH 6.8. Fractions of each sample were collected in 80 tubes using an automated fraction collector (Gilson, France) and then used for subsequent ultraviolet (SPECTRAmax PLUS 384, Molecular Devices, CA) or fluorescence spectrometry detection (WALLAC VICTOR™, 1420 MULTILABEL COUNTER, Perkin Elmer, USA). […] The elution profile for each sample was determined in triplicate for statistical analysis (Prism, GraphPad Software, USA). […]"}}}
{"smiles": "CC1(C)C(/C=C/C2=C(Oc3ccc(S(=O)(=O)O)cc3)C(=C/C=C3/N(CCCCS(=O)(=O)[O-])c4ccc(S(=O)(=O)[O-])cc4C3(C)C)/CCC2)=[N+](CCCCCC(=O)NCC(O)C[n+]2ccn(CC(O)(P(=O)(O)O)P(=O)(O)O)c2)c2ccc(S(=O)(=O)O)cc21", "note": "(centres unmarked) [Compound 800CW-ZOL, (E)-2-((E)-2-(3-((E)-2-(1-(6-((2-hydroxy-3-(1-(2-hydroxy-2,2-diphosphonoethyl)-1H-imidazol-3-ium-3-yl)propyl)amino)-6-oxohexyl)-3,3-dimethyl-5-sulfo-3H-indol-1-ium-2-yl)vinyl)-2-(4-sulfophenoxy)cyclohex-2-en-1-ylidene)ethylidene)-3,3-dimethyl-1-(4-sulfonatobutyl)indoline-5-sulfonate]", "values": [{"measurement": "viable cell number", "setting": "J774.2 macrophages", "value": "modest decreases in viable cell number at high concentrations"}, {"measurement": "Extinction coefficient", "setting": "[1]", "value": "240,000 (pH 7.0) M^−1cm^−1"}, {"measurement": "accumulation of unprenylated Rap1A (anti-prenylation activity)", "setting": "[2]", "value": "did not show accumulation of unprenylated Rap1A"}, {"measurement": "Maximum absorption wavelength (λmax (abs), nm)", "setting": "[3]", "value": 774, "unit": "nm"}, {"measurement": "Maximum emission wavelength (λmax (em), nm)", "setting": "[3]", "value": 789, "unit": "nm"}]}
{"smiles": "CC1(C)C(C=CC=CC=C2N(CCCS(=O)(=O)O)c3ccc(S(=O)(=O)O)cc3C2(C)CCCCCC(=O)NCC(O)C[n+]2cccc(CC(O)(P(=O)(O)O)P(=O)(O)O)c2)=[N+](CCCS(=O)(=O)O)c2ccc(S(=O)(=O)O)cc21", "note": "(centres unmarked) [AF647-RIS, 2-(5-(3-(6-((2-hydroxy-3-(3-(2-hydroxy-2,2-diphosphonoethyl)pyridin-1-ium-1-yl)propyl)amino)-6-oxohexyl)-3-methyl-5-sulfo-1-(3-sulfopropyl)indolin-2-ylidene)penta-1,3-dien-1-yl)-3,3-dimethyl-5-sulfo-1-(3-sulfopropyl)-3H-indol-1-ium]", "values": [{"measurement": "HAP binding affinity (retention time on HAP column, normalized to RIS)", "setting": "[4]", "value": "largest relative decrease of HAP affinity compared to other fluorescent RIS conjugates, but still retains strong absolute binding affinity"}, {"measurement": "viable cell number", "setting": "J774.2 macrophages", "value": "modest decreases in viable cell number at high concentrations"}, {"measurement": "Extinction coefficient", "setting": "[1]", "value": "240,000 (pH 7.0) M^−1cm^−1"}, {"measurement": "accumulation of unprenylated Rap1A (anti-prenylation activity)", "setting": "[2]", "value": "did not show accumulation of unprenylated Rap1A"}, {"measurement": "Maximum absorption wavelength (λmax (abs), nm)", "setting": "[3]", "value": 648, "unit": "nm"}, {"measurement": "Maximum emission wavelength (λmax (em), nm)", "setting": "[3]", "value": 666, "unit": "nm"}]}
